Test results: patent US9227995B2, “Peptides” (DRUG DISCOVERY LABORATORY AS, priority 2010, dated 2016)

Test: aqueous solubility of the peptide
Assay type: physicochemical
Settings: water; stated as significantly higher compared to acyclic 21

COC(=O)C(C)(C)NC(=O)[C@@H]1COCc2cn(nn2)CCC[C@H](NC(=O)C(C)(C)NC(=O)C(C)(C)NC(=O)C(C)(C)NC(=O)OC(C)(C)C)C(=O)NC(C)(C)C(=O)NC(C)(C)C(=O)N1 [compound 23, Methyl 2-methyl-2-((5S,14S)-8,8,11,11-tetramethyl-5-(2,2,6,6,9,9,12,12-octamethyl-4,7,10-trioxo-3-oxa-5,8,11-triazamidecanamido)-6,9,12-trioxo-16-oxa-1,7,10,13,19,20-hexaazabicyclo[16.2.1]henicosa-18 (21),19-dienecarboxamido)propanoate]
solubility: > 1000 µM
